Here are results for four molecules from ChEMBL document CHEMBL1134487, “Design, synthesis, and biological evaluation of analogues of the antitumor agent, 2-(4-[(7-chloro-2-quinoxalinyl)oxy]phenoxy)propionic acid (XK469)” (2001).

Each structure is given as a SMILES string. Activity calls are given as the source filed them. The calls are words filed in the database; no cut-off is given here.

For orientation: T/C means the ratio of treated to control.

Assay [1] relates to Mus musculus. In words: In vivo activity tested against C3H mice bearing panc-03 murine tumor measured as % treated/control calculated at 700 mg/kg (po). It is filed as functional.
Assay [2] concerns Mus musculus. In words: In vivo activity tested against C3H mice bearing panc-03 murine tumor measured as body weight loss at 700 mg/kg (po). It is filed as functional.
Assay [3] deals with Mus musculus. Briefly: In vivo activity tested against C3H mice bearing panc-03 murine tumor measured as log Kill value was based on tumors that grew at 700 mg/kg (po). Details: dose 700 mg/kg. The class given is functional, organism-based.
Assay [4] concerns Mus musculus. In words: In vivo activity against iv transplanted AML Leukemia 1498 tumors of mice; Not active. It is filed as functional, organism-based.
The subject of assay [5] is Mus musculus. Briefly: In vivo activity against transplanted Mam-16/C/ Taxol tumors of mice; Not active. It is filed as functional, organism-based.
In assay [6] the test system is Mus musculus. Briefly: In vivo activity against transplanted Mam-16/C/Adr tumors of mice; Not active. The class given is functional, organism-based.
Assay [7] deals with Mus musculus. Briefly: In vivo activity against transplanted Mam-17 tumors of mice; Not active. It is filed as functional, organism-based.
Assay [8] relates to Mus musculus. In words: In vivo activity against transplanted Mam-17/Adr tumors of mice; Not active. The class given is functional, organism-based.
The subject of assay [9] is Mus musculus. In words: In vivo activity against transplanted Mel-B16 tumors of mice; Not active. It is filed as functional, organism-based.
For assay [10], the system named is Mus musculus. In words: In vivo activity against transplanted Panc-02 tumors of mice; Not active. The class given is functional, organism-based.
Assay [11] deals with Mus musculus. In words: In vivo activity against transplanted Panc-03 tumors of mice; Not active. It is filed as functional, organism-based.
Assay [12] has as its system Mus musculus. Briefly: In vivo activity against transplanted colon-51 tumors of mice; Not active. The class given is functional, organism-based.
In assay [13] the test system is Mus musculus. Briefly: In vivo activity against iv transplanted Leukemia L1210 tumors of mice. The class given is functional, organism-based.
In assay [14] the test system is Mus musculus. In words: In vivo activity against transplanted Mam-16/C tumors of mice. It is filed as functional, organism-based.
The test system of assay [15] is Mus musculus. Briefly: In vivo activity against transplanted Squam lung-LC12 tumors of mice. The class given is functional, organism-based.
The test system of assay [16] is Mus musculus. In words: In vivo activity against transplanted colon-26 tumors of mice. It is filed as functional, organism-based.
The subject of assay [17] is Mus musculus. Briefly: In vivo activity against transplanted colon-38 tumors of mice. The class given is functional, organism-based.
In assay [18] the test system is Mus musculus. Briefly: In vivo activity tested against C3H mice bearing panc-03 murine tumor measured as % treated/control calculated at 800 mg/kg (po). It is filed as functional.
Assay [19] relates to Mus musculus. In words: In vivo activity tested against C3H mice bearing panc-03 murine tumor measured as body weight loss at 800 mg/kg (po). The class given is functional.
Assay [20] relates to Mus musculus. In words: In vivo activity tested against C3H mice bearing panc-03 murine tumor measured as log Kill value was based on tumors that grew at 800 mg/kg (po). It is filed as functional, organism-based. Details: dose 800 mg/kg.
Assay [21] concerns Mus musculus. In words: In vivo activity tested against C3H mice bearing panc-03 murine tumor measured as % treated/control calculated at 324 mg/kg (po). It is filed as functional.
Assay [22] concerns Mus musculus. In words: In vivo activity tested against C3H mice bearing mammary adenocarcinoma -16c/ADR tumor measured as body weight loss at 164 mg/kg (po). The class given is functional.
Assay [23] deals with Mus musculus. Briefly: In vivo activity tested against C3H mice bearing mammary adenocarcinoma -17/ADR tumor measured as body weight loss at 162 mg/kg (po). The class given is functional.
In assay [24] the test system is Mus musculus. Briefly: In vivo activity tested against C3H mice bearing mammary adenocarcinoma -17/ADR tumor measured as body weight loss at 99 mg/kg (po). The class given is functional.
Assay [25] relates to Mus musculus. Briefly: In vivo activity tested against C3H mice bearing panc-03 murine tumor measured as body weight loss at 324 mg/kg (po). The class given is functional.
The subject of assay [26] is Mus musculus. In words: In vivo activity tested against C3H mice bearing mammary adenocarcinoma -16c/ADR tumor measured as % treated/control calculated at 164 mg/kg (po). It is filed as functional.
Assay [27] concerns Mus musculus. Briefly: In vivo activity tested against C3H mice bearing mammary adenocarcinoma -17/ADR tumor measured as % treated/control calculated at 162 mg/kg (po). It is filed as functional.
The test system of assay [28] is Mus musculus. Briefly: In vivo activity tested against C3H mice bearing mammary adenocarcinoma -17/ADR tumor measured as % treated/control calculated at 99 mg/kg (po). The class given is functional.
Assay [29] deals with Mus musculus. Briefly: In vivo activity tested against C3H mice bearing mammary adenocarcinoma -17/ADR tumor measured as log Kill value was based on tumors that grew at 99 mg/kg (po). It is filed as functional, organism-based. Details: dose 99 mg/kg.
Assay [30] deals with Mus musculus. Briefly: In vivo activity tested against C3H mice bearing panc-03 murine tumor measured as log Kill value was based on tumors that grew at 180 mg/kg (po). It is filed as functional, organism-based. Details: dose 180 mg/kg.
Assay [31] concerns Mus musculus. In words: In vivo activity tested against C3H mice bearing panc-03 murine tumor measured as log Kill value was based on tumors that grew at 324 mg/kg (po). The class given is functional, organism-based. Details: dose 324 mg/kg.
The subject of assay [32] is Mus musculus. Briefly: In vivo activity tested against C3H mice bearing panc-03 murine tumor measured as % treated/control calculated at 180 mg/kg (po). It is filed as functional.
The subject of assay [33] is Mus musculus. In words: In vivo activity tested against C3H mice bearing mammary adenocarcinoma -16c/ADR tumor measured as log Kill value was based on tumors that grew at 164 mg/kg (po). The class given is functional, organism-based. Details: dose 164 mg/kg.
Assay [34] relates to Mus musculus. In words: In vivo activity tested against C3H mice bearing mammary adenocarcinoma -17/ADR tumor measured as log Kill value was based on tumors that grew at 162 mg/kg (po). It is filed as functional, organism-based. Details: dose 162 mg/kg.
The test system of assay [35] is Mus musculus. Briefly: In vivo activity tested against C3H mice bearing panc-03 murine tumor measured as body weight loss at 180 mg/kg (po). The class given is functional.

In the case of `CC(Oc1ccc(Oc2cnc3cc([N+](=O)[O-])ccc3n2)cc1)C(=O)O` (stereo not given), the T/C in the assay on Mus musculus [1] is given as 41%. The Body weight loss in the assay with Mus musculus [2] is -1.4%. This molecule displayed a Log kill in the assay with Mus musculus [3] of 0.42.

For the molecule `Nc1ccn([C@@H]2O[C@H](CO)[C@@H](O)C2(F)F)c(=O)n1`, the NA entry with Mus musculus [4], in the assay on Mus musculus [5], in the assay with Mus musculus [6], in the assay on Mus musculus [7], in the assay on Mus musculus [8] and with Mus musculus [9] was “inactive” each time. Also, the NA result in the assay with Mus musculus [10], with Mus musculus [11] and with Mus musculus [12] was “inactive” throughout. The Log kill in the assay with Mus musculus [13] is above 5; in the assay on Mus musculus [14], above 2.8; with Mus musculus [15], below 0.7; with Mus musculus [16], 2.8; in the assay with Mus musculus [17] it was 2.8.

For the molecule `CC(Oc1ccc(Oc2cnc3ccc(Cl)cc3n2)cc1)C(=O)NN` (stereo not given), the T/C with Mus musculus [18] was 27%. For the same molecule, the Body weight loss in the assay with Mus musculus [19] was -6.5%. Further, the Log kill with Mus musculus [20] was determined as 0.75.

As to `COc1c(Cl)ccc2ncc(Oc3ccc(OC(C)C(=O)O)cc3)nc12` (stereo not given), the T/C is 0% in the assay on Mus musculus [21]; 7.5% in the assay on Mus musculus [26]; 7% with Mus musculus [27]; 13% in the assay with Mus musculus [28]; 33% with Mus musculus [32]. The Body weight loss in the assay on Mus musculus [22] is -6.2%; in the assay on Mus musculus [23], -16.4%; with Mus musculus [24], -1.5%; in the assay on Mus musculus [25] it was -15%; with Mus musculus [35], 5%. For the same molecule, the Log kill with Mus musculus [29] came to 1.2; with Mus musculus [30], 0.64; with Mus musculus [31] it was 3; in the assay with Mus musculus [33], 1.7; in the assay on Mus musculus [34] it was 1.5.
